Structures can show the parent of a compound that is named as a salt. Where two headings read alike, the source gives them in different places.
Experiments:
[1] = target: T1, SARS-CoV-2 PLpro (nsp3 1564–1878) (Severe acute respiratory syndrome coronavirus 2, UniProt P0DTD1); assay: biochemical; set-up: FRET-quenched peptide (Pro3) cleavage by PLpro, 10 min pre-incubation, slope over 20 min, normalised to no-compound control; details: read-out: % of control remaining
[2] = target: T1, SARS-CoV-2 PLpro (nsp3 1564–1878); assay: biochemical; set-up: FRET-quenched peptide (Pro3) cleavage by PLpro, 10 min pre-incubation, slope over 20 min, normalised to no-compound control; details: read-out: % of control remaining; remark: listed apart in the source

With `COc1ccc(C2=N[C@@H](c3ccc(Cl)cc3)[C@@H](c3ccc(Cl)cc3)N2C(=O)N2CCNC(=O)C2)c(OC(C)C)c1` [Nutlin (3a)] the remaining activity at 1.25 µM ([1]; Well no.=6440, low concentration screen) was 92.9%, the remaining activity at 1.25 µM ([1]; Well no.=7746, low concentration screen) was 92% and the remaining activity at 3.75 µM ([2]; Well no.=6440, high concentration screen) was 93.4%. For the same compound, the remaining activity at 3.75 µM ([2]; Well no.=7746, high concentration screen) was 93.2%.

Work on `COc1ccc(C2=N[C@H](c3ccc(Cl)cc3)[C@H](c3ccc(Cl)cc3)N2C(=O)N2CCNC(=O)C2)c(OC(C)C)c1` [Nutlin (3b)] yielded a remaining activity at 1.25 µM ([1]; Well no.=6742, low concentration screen) of 100%, a remaining activity at 1.25 µM ([1]; Well no.=8362, low concentration screen) of 101% and a remaining activity at 3.75 µM ([2]; Well no.=6742, high concentration screen) of 100%.

`COc1ccc(C2=N[C@@H](c3ccc(Cl)cc3)[C@@H](c3ccc(Cl)cc3)N2C(=O)N2CCNC(=O)C2)c(OC(C)C)c1` [Nutlin-3] was tested, and the remaining activity at 1.25 µM ([1]; Well no.=4621, low concentration screen) was 104% and the remaining activity at 3.75 µM ([2]; Well no.=4621, high concentration screen) was 108%.

Work on `CC(CCc1ccccc1)NC(C)C(O)c1ccc(O)cc1` (centres unmarked) [Nylidrin hydrochloride] yielded a remaining activity at 1.25 µM ([1]; Well no.=940, low concentration screen) of 96% and a remaining activity at 3.75 µM ([2]; Well no.=940, high concentration screen) of 95.1%.

`C[C@@H]1[C@H](O)[C@@H](C)/C=C/C=C/CC/C=C/C=C/C=C/C=C/[C@H](O[C@@H]2O[C@H](C)[C@@H](O)[C@H](N)[C@@H]2O)C[C@@H]2O[C@](O)(C[C@@H](O)[C@H](O)CC[C@@H](O)C[C@@H](O)C[C@@H](O)CC(=O)O[C@H]1C)C[C@H](O)[C@H]2C(=O)O` [Nystatin] gave a remaining activity at 1.25 µM ([1]; Well no.=2045, low concentration screen) of 97.9% and a remaining activity at 3.75 µM ([2]; Well no.=2045, high concentration screen) of 100%.

Work on `O=C(NCCO)c1cc(C(=O)NCCO)cc(C(=O)NCCO)c1` [N~1~,N~3~,N~5~-tris(2-hydroxyethyl)-1,3,5-benzenetricarboxamide] yielded a remaining activity at 1.25 µM ([1]; Well no.=6029, low concentration screen) of 96.8% and a remaining activity at 3.75 µM ([2]; Well no.=6029, high concentration screen) of 99.9%.

`CC1(C)CC(NC(=O)C(=O)Nc2ccc(Cl)cc2)CC(C)(C)N1` [N~1~-(4-chlorophenyl)-N~2~-(2,2,6,6-tetramethyl-4-piperidinyl)ethanediamide] was tested, and the remaining activity at 1.25 µM ([1]; Well no.=6039, low concentration screen) was 97.6% and the remaining activity at 3.75 µM ([2]; Well no.=6039, high concentration screen) was 101%.

Compound `Nc1nc(OCc2ccccc2)c2nc[nH]c2n1` [O6-benzylguanine] has a remaining activity at 1.25 µM ([1]; Well no.=123, low concentration screen) of 106% and a remaining activity at 3.75 µM ([2]; Well no.=123, high concentration screen) of 105%.

`NOCC(=O)O` [O-(Carboxymethyl)hydroxylamine hemihydrochloride] showed a remaining activity at 1.25 µM ([1]; Well no.=15, low concentration screen) of 103% and a remaining activity at 3.75 µM ([2]; Well no.=15, high concentration screen) of 102%.

Work on `CC(=O)OC[C@H](N)C(=O)O` [O-Acetylserine] yielded a remaining activity at 1.25 µM ([1]; Well no.=6965, low concentration screen) of 101% and a remaining activity at 3.75 µM ([2]; Well no.=6965, high concentration screen) of 104%.

With `COc1ccc2[nH]cc(CCN)c2c1` [O-Methylserotonin hydrochloride] the remaining activity at 1.25 µM ([1]; Well no.=1076, low concentration screen) was 94% and the remaining activity at 3.75 µM ([2]; Well no.=1076, high concentration screen) was 97%.

`N[C@@H](COP(=O)(O)O)C(=O)O` [O-Phospho-L-serine] showed a remaining activity at 1.25 µM ([1]; Well no.=806, low concentration screen) of 98%, a remaining activity at 1.25 µM ([1]; Well no.=6867, low concentration screen) of 99.1% and a remaining activity at 1.25 µM ([1]; Well no.=6956, low concentration screen) of 101%. It also gave a remaining activity at 3.75 µM ([2]; Well no.=806, high concentration screen) of 95.7%, a remaining activity at 3.75 µM ([2]; Well no.=6867, high concentration screen) of 99.4% and a remaining activity at 3.75 µM ([2]; Well no.=6956, high concentration screen) of 101%.

With `CCN(CCCCO)C(C)Cc1ccc(O)cc1` (centres unmarked) [O-desmethyl Mebeverine alcohol (hydrochloride)] the remaining activity at 1.25 µM ([1]; Well no.=8489, low concentration screen) was 94.7% and the remaining activity at 3.75 µM ([2]; Well no.=8489, high concentration screen) was 99.4%.

For `Cc1c(Cc2ccc3ccccc3n2)c2cc(F)ccc2n1CC(=O)O` [OC000459], the remaining activity at 1.25 µM ([1]; Well no.=7765, low concentration screen) was 108% and the remaining activity at 3.75 µM ([2]; Well no.=7765, high concentration screen) was 105%.

For `COc1cc(C(=O)N(CCCc2ccccc2)Cc2ccc(CC(=O)O)cc2)cc(OC)c1C` [ONO-7300243], the remaining activity at 1.25 µM ([1]; Well no.=7711, low concentration screen) was 101% and the remaining activity at 3.75 µM ([2]; Well no.=7711, high concentration screen) was 103%.

Work on `CC(C(=O)Nc1cc(C#N)ccc1CCCC(=O)O)c1ccc(F)c2ccccc12` (centres unmarked) [ONO-AE3-208] yielded a remaining activity at 1.25 µM ([1]; Well no.=7279, low concentration screen) of 98.9% and a remaining activity at 3.75 µM ([2]; Well no.=7279, high concentration screen) of 94.1%.

With `COc1ccc(C[C@H](NC(=O)[C@H](C)NC(=O)CN2CCOCC2)C(=O)N[C@@H](Cc2ccccc2)C(=O)[C@@]2(C)CO2)cc1` [ONX-0914 (PR-957)] the remaining activity at 1.25 µM ([1]; Well no.=9126, low concentration screen) was 90% and the remaining activity at 3.75 µM ([2]; Well no.=9126, high concentration screen) was 93.6%.

`COc1cccc2cc(-c3nc([C@H]4CC[C@H](C(=O)O)CC4)n4ncnc(N)c34)[nH]c12` [OSI-027] showed a remaining activity at 1.25 µM ([1]; Well no.=4960, low concentration screen) of 99.2% and a remaining activity at 3.75 µM ([2]; Well no.=4960, high concentration screen) of 95.6%.

`C#Cc1cccc(Nc2ncnc3cc(OCCOC)c(OCCO)cc23)c1` [OSI-420] was tested, and the remaining activity at 1.25 µM ([1]; Well no.=4822, low concentration screen) was 99.2%, the remaining activity at 1.25 µM ([1]; Well no.=5152, low concentration screen) was 102% and the remaining activity at 3.75 µM ([2]; Well no.=4822, high concentration screen) was 101%. The remaining activity at 3.75 µM ([2]; Well no.=5152, high concentration screen) was 97.4%.

`O=C(Nc1ccc(OC(F)(F)F)cc1)c1sccc1NCc1ccnc2ccccc12` [OSI-930] gave a remaining activity at 1.25 µM ([1]; Well no.=4755, low concentration screen) of 105% and a remaining activity at 3.75 µM ([2]; Well no.=4755, high concentration screen) of 103%.

`CNC(=O)CCc1cc(-c2ccc(-c3ccc(C(F)(F)F)cc3)cc2)nn1-c1ccc(N2CCNCC2)cc1` [OSU-T315] gave a remaining activity at 1.25 µM ([1]; Well no.=7022, low concentration screen) of 92.9% and a remaining activity at 3.75 µM ([2]; Well no.=7022, high concentration screen) of 93.8%.

For `COC1=CC(c2cc3ccccc3[nH]2)=N/C1=C\c1[nH]c(C)cc1C` [Obatoclax mesylate (GX15-070)], the remaining activity at 1.25 µM ([1]; Well no.=4619, low concentration screen) was 95.3% and the remaining activity at 3.75 µM ([2]; Well no.=4619, high concentration screen) was 98.7%.

`CC[C@H]1[C@@H](O)[C@@H]2[C@H](CC[C@]3(C)[C@@H]([C@H](C)CCC(=O)O)CC[C@@H]23)[C@@]2(C)CC[C@@H](O)C[C@@H]12` [Obeticholic Acid] gave a remaining activity at 1.25 µM ([1]; Well no.=8720, low concentration screen) of 90.8% and a remaining activity at 3.75 µM ([2]; Well no.=8720, high concentration screen) of 93%.

`C[C@@H]1Cc2c(Cl)cc(C(=O)N[C@@H](Cc3ccccc3)C(=O)O)c(O)c2C(=O)O1` [Ochratoxin A] showed a remaining activity at 1.25 µM [1] of 92.5% and a remaining activity at 3.75 µM [2] of 92.8%.

Compound `CCCCCCCCCCCCCCCCCC(=O)O` [Octadecanoic acid] has a remaining activity at 1.25 µM ([1]; Well no.=4314, low concentration screen) of 101% and a remaining activity at 3.75 µM ([2]; Well no.=4314, high concentration screen) of 96.8%.

With `O=C(O)CCCCCCC(=O)O` [Octanedioic acid] the remaining activity at 1.25 µM ([1]; Well no.=6931, low concentration screen) was 108% and the remaining activity at 3.75 µM ([2]; Well no.=6931, high concentration screen) was 103%.

For `CCCCCCCC(=O)O` [Octanoic acid], the remaining activity at 1.25 µM ([1]; Well no.=6591, low concentration screen) was 104% and the remaining activity at 3.75 µM ([2]; Well no.=6591, high concentration screen) was 110%.

`NCC(O)c1ccc(O)cc1` (centres unmarked) [Octopamine (hydrochloride)] gave a remaining activity at 1.25 µM ([1]; Well no.=6713, low concentration screen) of 98.8% and a remaining activity at 3.75 µM ([2]; Well no.=6713, high concentration screen) of 98.6%.

For `C[C@@H](O)[C@@H]1NC(=O)[C@H](CCCCN)NC(=O)[C@@H](Cc2c[nH]c3ccccc23)NC(=O)[C@H](Cc2ccccc2)NC(=O)[C@@H](NC(=O)[C@H](N)Cc2ccccc2)CSSC[C@@H](C(=O)N[C@H](CO)[C@@H](C)O)NC1=O` [Octreotide (acetate)], the remaining activity at 1.25 µM ([1]; Well no.=6556, low concentration screen) was 92.6%, the remaining activity at 1.25 µM ([1]; Well no.=7396, low concentration screen) was 97.5% and the remaining activity at 3.75 µM ([2]; Well no.=6556, high concentration screen) was 94.1%. For the same compound, the remaining activity at 3.75 µM ([2]; Well no.=7396, high concentration screen) was 93.2%.

`C[C@@H](O)[C@@H]1NC(=O)[C@H](CCCCN)NC(=O)[C@@H](Cc2c[nH]c3ccccc23)NC(=O)[C@H](Cc2ccccc2)NC(=O)[C@@H](NC(=O)[C@H](N)Cc2ccccc2)CSSC[C@@H](C(=O)N[C@H](CO)[C@@H](C)O)NC1=O` [Octreotide] was tested, and the remaining activity at 1.25 µM ([1]; Well no.=1977, low concentration screen) was 103% and the remaining activity at 3.75 µM ([2]; Well no.=1977, high concentration screen) was 107%.

— paper PMC8286840, “Identifying SARS-CoV-2 antiviral compounds by screening for small molecule inhibitors of Nsp3 papain-like protease” (Biochemical Journal, 2021)
